System: FP receptor
Assay: porcine eyecup model of ex vivo vasomotricity assay, PGF2α-induced constriction of retinal microvessels
From the text: In order to see if the peptides could inhibit FP function using an ex vivo model, we chose porcine eyecup model, an ex vivo assay of vascular constriction in porcine retinas which we previously described and validated (Li et al., 1996 J. Pharmacol. Expt. Therapeut. 278: 370-377; Li et al., 1997 Am. J. Physiol. 273: R1283-90; Abran et al., 1997 Am. J. Physiol. 272: R995-1001). Since FP receptor densities in newborn vasculature are minimal due to down regulation by high levels of circulating prostaglandins in the perinatal period, the newborn pigs were treated with a prostaglandin synthetase blocker, ibuprofen (30 mg/Kg of bodyweight/ 8 h for 24 h) to increase the density of the receptors as well as their vasomotor effects. By inhibiting circulating prostaglandins; we were able to show potent inhibition of FP receptor-mediated second messenger synthesis as well as FP-mediated vascular constriction in this eyecup model.
The preparations were allowed to stabilize for 30 min.
Vascular diameter was recorded before and 10 min following the topical application of the agent.
Small letters indicate L-amino acids and capital letters indicate D- amino acids. I = isoleucine; L= leucine; G =glycine; H=histidine, R=Arginine; D=Aspartic acid; Y=Tyrosine; […]; A-Alanine; W= Tryptophan; E-Glutamic acid; F= Phenyl alanine; Q=Glutamine; N=Aspargine; P=Proline; S=Serine; X=Cyclohexyl alanine.

ILGHKDYK [PCP-13.13, R to K variant of PCP-13]
%Vasomotor response (of constriction) (100 µM peptide added 30 min before 10^-7 M PGF2α, relative to maximal constriction in the absence of peptide): 36.9% | % inhibition of maximal max. response (100 µM peptide, 10^-7 M PGF2α, calculated as 100 - per cent vasomotor response): 63.1% | change of inhibitory activity relative to the parent peptide (in words) (peptides at 100 µM, compared with PCP-13 (PCP-13 and PCP-11 with PCP-8, PCP-12 with PCP-10)): affected the activity of PCP-13 moderately

From patent EP1114151B1, “G PROTEIN-COUPLED RECEPTOR ANTAGONISTS” (Hopital Sainte-Justine, priority 1998, dated 2011)
